According to paper PMC4033665 (Journal of Medicinal Chemistry, 2014):
“Also recorded” adds a separate entry of the source. Read-outs that look alike come from different tables or passages of the source.

What was measured:
[1] = system: HL-60 cells; assay: apoptosis by annexin-V / PI double staining, flow cytometry, HL-60; format: cell-based, human; conditions: for induction of apoptosis in HL-60 (in words) / apoptotic cells (early + late): 20 h
[2] = system: Eμ-myc/Mcl-1 lymphoma cells; assay: cell death; format: cell-based, mice; conditions: 15–18 h, increasing concentrations
[3] = system: Eμ-myc/Bcl-2 lymphoma cells; assay: cell death; format: cell-based, mice; conditions: 15–18 h, increasing concentrations
[4] = target: T1, human Mcl-1 (Homo sapiens, UniProt Q07820); assay: 1H,15N-HSQC NMR chemical shift perturbation of Mcl-1; format: binding; conditions: 15N-labeled Mcl-1 75 μM, Mcl-1:compound 1:1 and 1:2
[5] = target: T1, human Mcl-1; format: binding; conditions: for improved binding in SPR assay compared to 3: reference compound 3; for decrease of binding in SPR assay compared to 10: reference compound 10
[6] = target: T1, human Mcl-1; format: binding; conditions: for improved binding compared to 1: reference compound 1
[7] = target: endogenous Mcl-1 protein (Homo sapiens, UniProt Q07820); assay: biotin-streptavidin pull-down with biotin-labeled Noxa in 2LMP whole cell lysate; conditions: BL-Noxa 0.1 μM
[8] = system: caspase-3 activity in HL-60 cells; assay: caspase-3 fluorometric assay; format: cell-based, human; conditions: for induction of caspase-3 activity (in words): HL-60, 20 h
[9] = target: Mcl-1; conditions: read-out: Ki of 53 to Mcl-1; cited from earlier work
[10] = target: Bcl-2; conditions: read-out: Ki against Bcl-2; cited from earlier work

T1 sequence (Q07820 171-327): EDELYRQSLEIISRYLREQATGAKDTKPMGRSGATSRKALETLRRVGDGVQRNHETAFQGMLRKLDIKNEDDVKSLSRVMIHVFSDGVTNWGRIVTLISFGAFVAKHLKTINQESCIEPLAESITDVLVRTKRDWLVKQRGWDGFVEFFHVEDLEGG
Chain of endogenous Mcl-1 protein (Q07820 whole entry): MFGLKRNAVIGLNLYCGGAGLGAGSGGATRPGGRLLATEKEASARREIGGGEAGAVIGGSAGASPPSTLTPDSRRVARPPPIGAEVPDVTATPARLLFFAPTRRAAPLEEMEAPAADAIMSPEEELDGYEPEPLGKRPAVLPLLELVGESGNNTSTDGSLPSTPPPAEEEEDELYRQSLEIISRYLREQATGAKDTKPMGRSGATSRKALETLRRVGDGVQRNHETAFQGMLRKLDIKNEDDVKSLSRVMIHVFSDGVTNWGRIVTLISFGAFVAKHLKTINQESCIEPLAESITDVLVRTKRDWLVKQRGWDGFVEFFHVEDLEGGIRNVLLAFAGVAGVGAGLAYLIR

## COC(=O)C[C@H](NC(=O)[C@H](C)NC(=O)[C@@H](NC(=O)OCc1ccccc1)C(C)C)C(=O)CF (racemic) [Z-VAD-FMK, Z-Val-Ala-DL-Asp-fluoromethylketone, reference compound]
[1]; HL-60, Figure S7
  effect of Z-VAD-FMK alone on cells: has no effect on cells

## CC1(C)CCC(c2ccc(Cl)cc2)=C(CN2CCN(c3ccc(C(=O)NS(=O)(=O)c4ccc(N[C@H](CCN5CCOCC5)CSc5ccccc5)c(S(=O)(=O)C(F)(F)F)c4)cc3)CC2)C1 [ABT-263, reference compound]
[2]
  sensitivity of lymphoma cells overexpressing Mcl-1 to induced cell death: insensitive
[3]
  sensitivity of lymphoma cells overexpressing Bcl-2 to induced cell death: sensitive

## CS(=O)(=O)Nc1cc(SCC(=O)O)c(O)c2ccccc12 [Compound 2, 2-((1-Hydroxy-4-(methylsulfonamido)naphthalen-2-yl)thio)acetic Acid]
[4]
  chemical shift perturbation of Mcl-1 backbone residues (HSQC NMR, in words): lack of chemical shift perturbation

## CC(C)(C)c1ccc(S(=O)(=O)Nc2cc(SCC(=O)O)c(O)c3ccccc23)cc1 [Compound 7]
[5]
  improved binding in SPR assay compared to 3: 1.5 fold
[6]; reference compound 3
  improved binding in FP assay compared to 3: 4.5 fold

## O=C(O)CSc1cc(NS(=O)(=O)c2ccc(Br)cc2)c2ccccc2c1O [Compound 10, 2-((4-(4-Bromophenylsulfonamido)-1-hydroxynaphthalen-2-yl)thio)acetic Acid]
[5]
  improved binding in SPR assay compared to 3: 5 fold
[6]
  improved binding compared to 1: 7 fold
[6]; reference compound 3
  improved binding in FP assay compared to 3: 7 fold
[7]
  binding of BL-Noxa to Mcl-1 after preincubation (pull-down, Western blot): completely blocked

## COc1ccc(S(=O)(=O)Nc2cc(SCC(=O)O)c(O)c3ccccc23)cc1 [Compound 11, 2-((1-Hydroxy-4-(4-methoxyphenylsulfonamido)naphthalen-2-yl)thio)acetic Acid]
[6]
  decreased binding in FP assay compared to 3: 3 fold

## O=C(O)CSc1cc(NS(=O)(=O)c2ccc(-c3ccccc3)cc2)c2ccccc2c1O [Compound 16, 2-((4-([1,1′-Biphenyl]-4-ylsulfonamido)-1-hydroxynaphthalen-2-yl)thio)acetic Acid]
[5]
  improved binding in SPR assay compared to 3: 6 fold
[6]
  improved binding in FP assay compared to 3: 10 fold

## O=C(O)CSc1cc(NS(=O)(=O)c2cccc(-c3ccccc3)c2)c2ccccc2c1O [Compound 17, 2-((4-([1,1′-Biphenyl]-3-ylsulfonamido)-1-hydroxynaphthalen-2-yl)thio)acetic Acid]
[5]
  improved binding in SPR assay compared to 3: 6 fold
[6]; reference compound 3
  improved binding in FP assay compared to 3: 10 fold

## O=C(O)CSc1cc(NS(=O)(=O)c2ccc(-c3ccc(Cl)cc3)cc2)c2ccccc2c1O [Compound 19, 2-((4-(4′-Chloro-[1,1′-biphenyl]-4-ylsulfonamido)-1-hydroxynaphthalen-2-yl)thio)acetic Acid]
[5]
  improved binding in SPR assay compared to 3: 14 fold
[2]
  sensitivity of lymphoma cells overexpressing Mcl-1 to induced cell death: significantly sensitive
[6]
  less potent than 53 (Mcl-1 binding): 3 fold
  improved binding compared to 1: 9 fold
[6]; reference compound 3
  improved binding in FP assay compared to 3: 21 fold
[3]
  sensitivity of lymphoma cells overexpressing Bcl-2 to induced cell death: ineffective
[8]
  induction of caspase-3 activity (in words): induce activation of caspase-3 activity in a dose-dependent manner; also recorded: induced activation of caspase-3
[7]
  binding of BL-Noxa to Mcl-1 after preincubation (pull-down, Western blot): completely blocked

## O=C(O)CSc1cc(NS(=O)(=O)c2ccc(Oc3ccccc3)cc2)c2ccccc2c1O [Compound 21, 2-((1-Hydroxy-4-(4-phenoxyphenylsulfonamido)naphthalen-2-yl)thio)acetic Acid]
[1]; 2.5, 5.0 and 10 μM
  induction of apoptosis in HL-60 (in words): effectively induced apoptosis in a dose-dependent manner
[1]; HL-60
  concentration at which induction of apoptosis starts: 2.5 µM
[1]; HL-60, 5.0 μM
  apoptotic cells (early + late): 37.8%
[1]; HL-60, 10 μM
  apoptotic cells (early + late): 78.4%
[2]
  sensitivity of lymphoma cells overexpressing Mcl-1 to induced cell death: significantly sensitive
[6]
  less potent than 53 (Mcl-1 binding): 3 fold
[3]
  sensitivity of lymphoma cells overexpressing Bcl-2 to induced cell death: ineffective
[8]
  induction of caspase-3 activity (in words): induce activation of caspase-3 activity in a dose-dependent manner; also recorded: induced activation of caspase-3
[8]; HL-60, over a 24 h period
  concentration at which activation of caspase-3 starts: 2.5 µM
[7]
  binding of BL-Noxa to Mcl-1 after preincubation (pull-down, Western blot): completely blocked

## O=C(O)CSc1cc(NS(=O)(=O)N2CCN(c3ccccc3)CC2)c2ccccc2c1O [Compound 23, 2-((1-Hydroxy-4-(4-phenylpiperazine-1-sulfonamido)naphthalen-2-yl)thio)acetic Acid]
[5]; reference compound 16
  decrease in binding in SPR assay in comparison with 16: 8 fold
[6]
  decrease in binding in FP assay in comparison with 16: 6 fold

## O=C(O)CSc1cc(NC(=O)c2ccc(Br)cc2)c2ccccc2c1O [Compound 25, 2-((4-(4-Bromobenzamido)-1-hydroxynaphthalen-2-yl)thio)acetic Acid]
[6]
  decrease of binding in FP assay compared to 10: 83 fold

## O=C(O)CSc1cc(NS(=O)(=O)Cc2ccc(Cl)cc2)c2ccccc2c1O [Compound 26, 2-((4-((4-Chlorophenyl)methylsulfonamido)-1-hydroxynaphthalen-2-yl)thio)acetic Acid]
[6]; reference compound 9
  decreased binding affinity (FP) relative to 9: 6 fold

## O=C(O)CSc1cc(CNS(=O)(=O)c2ccccc2)c2ccccc2c1O [Compound 27]
[6]
  decreased binding in FP assay compared to 3: 18 fold

## O=S(=O)(Nc1ccc(O)c2ccccc12)c1ccccc1 [Compound 30]
[6]; competitive FP, Mcl-1
  did not show binding up to (FP assay, highest concentration tested): > 100 µM

## CCCCSc1cc(NS(=O)(=O)c2ccc(Br)cc2)c2ccccc2c1O [Compound 31, 4-Bromo-N-(3-(butylthio)-4-hydroxynaphthalen-1-yl)benzenesulfonamide]
[6]; competitive FP, Mcl-1
  did not show binding up to (FP assay, highest concentration tested): > 100 µM

## COC(=O)CSc1cc(NS(=O)(=O)c2ccc(Br)cc2)c2ccccc2c1O [Compound 32, Methyl 2-((4-(4-Bromophenylsulfonamido)-1-hydroxynaphthalen-2-yl)thio)acetate]
[5]
  decrease of binding in SPR assay compared to 10: 6 fold
[6]; reference compound 10
  decrease of binding in FP assay compared to 10: 10 fold

## NC(=O)CSc1cc(NS(=O)(=O)c2ccc(Br)cc2)c2ccccc2c1O [Compound 33, 2-((4-(4-Bromophenylsulfonamido)-1-hydroxynaphthalen-2-yl)thio)acetamide]
[5]
  decrease of binding in SPR assay compared to 10: 2 fold
[6]
  decrease of binding in FP assay compared to 10: 3 fold

## O=S(=O)(Nc1cc(SCc2nnn[nH]2)c(O)c2ccccc12)c1ccc(Oc2ccccc2)cc1 [Compound 37, N-(3-(((2H-Tetrazol-5-yl)methyl)thio)-4-hydroxynaphthalen-1-yl)-4-phenoxybenzenesulfonamide]
[1]; 2.5, 5.0 and 10 μM
  induction of apoptosis in HL-60 (in words): effectively induced apoptosis in a dose-dependent manner
[1]; HL-60, 5.0 μM
  apoptotic cells (early + late): 51.6%
[1]; HL-60, 10 μM
  apoptotic cells (early + late): 74.2%
[1]; HL-60, pretreated with 100 μM Z-VAD-FMK
  induction of apoptosis in the presence of Z-VAD-FMK (in words): significantly inhibited

## COC(=O)CSc1cc(NS(=O)(=O)c2ccc(Br)cc2)c2ccccc2c1OC [Compound 41, Methyl 2-((4-(4-Bromophenylsulfonamido)-1-methoxynaphthalen-2-yl)thio)acetate]
[1]; 40 μM
  induction of apoptosis in HL-60 (in words): has no effect on apoptosis induction
[2]
  sensitivity of lymphoma cells overexpressing Mcl-1 to induced cell death: did not show any activity
[6]
  did not show binding up to (FP assay, highest concentration tested): > 100 µM
[3]
  sensitivity of lymphoma cells overexpressing Bcl-2 to induced cell death: did not show any activity

## CC(=O)Oc1c(SCC(=O)O)cc(NS(=O)(=O)c2ccc(Br)cc2)c2ccccc12 [Compound 46, 2-((1-Acetoxy-4-(4-bromophenylsulfonamido)naphthalen-2-yl)thio)acetic Acid]
[6]; reference compound 10
  decrease of binding in FP assay compared to 10: 69 fold

## COc1c(I)cc(C=O)c2ccccc12 [Compound 53]
[9]
  Ki: 55 nM
[10]
  Ki: 870 nM
